{
  "source": "paper PMC8820799",
  "about": "“Angiogenesis and anti-leukaemia activity of novel indole derivatives as potent colchicine binding site inhibitors” (Journal of Enzyme Inhibition and Medicinal Chemistry, 2022)",
  "key": {"HL60": {"system": "HL60", "assay": "CCK-8 assay, HL60", "format": "cell-based", "conditions": "Homo sapiens, HL-60; leukaemia, APL; CCK-8, 72 h", "protocol": "(§1) Cells were seeded in 96-well plates at a density of 8 × 10^3 per well and exposed to different concentrations of compounds for 72 h. Subsequently, 10 µL CCK8 solution was added to each well and co-incubated for another 3–4 h at 37 °C. The absorbance was determined at 450 nm. Data was calculated with GraphPad Prism5 software.[32]"}, "CCRF-CEM": {"system": "CCRF-CEM", "assay": "CCK-8 assay, CCRF-CEM", "format": "cell-based", "conditions": "Homo sapiens, leukaemia, ALL, CCK-8, 72 h", "protocol": "as §1"}, "Jurkat": {"system": "Jurkat", "assay": "CCK-8 assay, Jurkat", "format": "cell-based", "conditions": "Homo sapiens, leukaemia, ALL, CCK-8, 72 h", "protocol": "as §1"}, "K562": {"system": "K562", "assay": "CCK-8 assay, K562", "format": "cell-based", "conditions": "Homo sapiens, leukaemia, CML, CCK-8, 72 h", "protocol": "as §1"}, "THP-1": {"system": "THP-1", "assay": "CCK-8 assay, THP-1", "format": "cell-based", "conditions": "Homo sapiens, leukaemia, AML, CCK-8, 72 h", "protocol": "as §1"}, "MV4-11": {"system": "MV4-11", "assay": "CCK-8 assay, MV4-11", "format": "cell-based", "conditions": "Homo sapiens, leukaemia, AML, CCK-8, 72 h", "protocol": "as §1"}, "HuT 78": {"system": "HuT 78", "assay": "CCK-8 assay, HuT 78", "format": "cell-based", "conditions": "Homo sapiens, HuT78; leukaemia, ALL; CCK-8, 72 h", "protocol": "as §1"}, "[1]": {"system": "transgenic zebrafish (FLK-1:EGFP)", "assay": "Zebrafish angiogenesis assay (ISVs)", "format": "in vivo", "conditions": "Danio rerio, transgenic zebrafish; triplicate, mean ± SD; read-out: Zebrafish (antiangiogenic activity IC50)", "protocol": "The transgenic flk: enhanced GFP zebrafish embryos were generated by pair-wise mating, collected and sorted into the 6-well plate (n = 30 per well) with 1 ml of aquaculture water (0.2 g/L of Instant Ocean Salt in distilled water) and raised at 28 °C. Then the embryos staged at 12 h post fertilisation (hpf) were treated with the indicated concentrations of compounds which were added into embryo water. About 30 embryos were screened for each concentration gradient. At 30hpf, the treated embryos were anaesthetised with 0.02% tricaine in embryo water and photographed. The numbers of ISVs were recorded under confocal microscopy. Results were obtained from three independent determinations and presented as mean ± SD.[38]"}, "[2]": {"biological_target": "T1, Tubulin isolated from porcine brain tissue (Sus scrofa, UniProt P02550+P02554)", "T1 construct": "purchased Cytoskeleton (Denver, CO), via Beyotime, China; host or cells: porcine brain tissue", "T1 sequence (P02554 whole entry)": "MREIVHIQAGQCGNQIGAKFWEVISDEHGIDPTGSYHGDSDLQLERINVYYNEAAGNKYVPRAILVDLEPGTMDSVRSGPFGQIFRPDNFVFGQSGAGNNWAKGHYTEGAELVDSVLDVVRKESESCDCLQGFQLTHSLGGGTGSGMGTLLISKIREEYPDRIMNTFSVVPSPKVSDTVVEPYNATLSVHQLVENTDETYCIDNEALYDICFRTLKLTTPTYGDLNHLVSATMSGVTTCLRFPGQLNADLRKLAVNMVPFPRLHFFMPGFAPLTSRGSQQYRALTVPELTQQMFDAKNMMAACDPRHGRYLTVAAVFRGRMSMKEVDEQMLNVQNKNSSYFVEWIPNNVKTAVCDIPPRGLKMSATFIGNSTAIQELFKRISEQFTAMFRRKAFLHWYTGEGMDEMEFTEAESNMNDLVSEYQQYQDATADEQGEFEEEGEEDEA", "T1 sequence (P02550 whole entry)": "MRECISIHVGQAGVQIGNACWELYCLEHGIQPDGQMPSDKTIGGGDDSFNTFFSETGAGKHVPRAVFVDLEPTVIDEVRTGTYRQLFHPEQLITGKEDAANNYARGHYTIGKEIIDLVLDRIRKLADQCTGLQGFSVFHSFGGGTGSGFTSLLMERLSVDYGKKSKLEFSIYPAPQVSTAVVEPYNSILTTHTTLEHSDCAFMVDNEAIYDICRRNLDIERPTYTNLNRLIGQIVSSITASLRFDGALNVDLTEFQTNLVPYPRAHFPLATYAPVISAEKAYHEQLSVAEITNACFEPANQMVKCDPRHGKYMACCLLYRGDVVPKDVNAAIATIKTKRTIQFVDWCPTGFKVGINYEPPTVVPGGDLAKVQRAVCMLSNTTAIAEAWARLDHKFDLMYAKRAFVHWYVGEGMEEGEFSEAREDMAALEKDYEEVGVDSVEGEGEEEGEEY", "assay": "Tubulin polymerisation assay", "format": "biochemical", "conditions": "triplicate, mean ± SD; read-out: Tubulin (tubulin inhibitory polymerisation IC50)", "protocol": "Tubulin polymerisation was determined with the tubulin polymerisation assay kit (Cytoskeleton, Denver, CO which was purchased from Cytoskeleton, Beyotime, China. Tubulin isolated from porcine brain tissue was used in this commercial kit.) It is based on the principal that light is scattered by microtubules to an extent that is proportional to the concentration of the microtubule polymer. Compounds that interact with tubulin will alter the polymerisation of tubulin, and this can be detected using a spectrophotometer. Tubulin polymerisation dynamics was monitored through measuring the change of absorbance at 340 nm every 2 min for 30 min at 37 °C on a spectrophotometer."}},
  "data": [
    {"smiles": "COc1ccc(/C=C\\c2cc(OC)c(OC)c(OC)c2)cc1O", "note": "[CA-4, Combretastatin A-4, reference compound]", "values": [
      {"measurement": "IC50", "setting": "HL60", "result": "0.26 ± 0.05", "unit": "µM"},
      {"measurement": "IC50", "setting": "CCRF-CEM", "result": "0.71 ± 0.11", "unit": "µM"},
      {"measurement": "IC50", "setting": "Jurkat", "result": "0.19 ± 0.02", "unit": "µM"},
      {"measurement": "IC50", "setting": "K562", "result": "0.27 ± 0.01", "unit": "µM"},
      {"measurement": "IC50", "setting": "THP-1", "result": "0.08 ± 0.01", "unit": "µM"},
      {"measurement": "IC50", "setting": "MV4-11", "result": "0.12 ± 0.03", "unit": "µM"},
      {"measurement": "IC50", "setting": "HuT 78", "result": "0.24 ± 0.04", "unit": "µM"}
    ]},
    {"smiles": "COc1cc(C(=O)C=Cc2c[nH]c3ccccc23)cc(OC)c1OC", "note": "[Compound 6]", "values": [
      {"measurement": "IC50", "setting": "[1]", "result": "27.8 ± 0.9", "unit": "µM"},
      {"measurement": "IC50", "setting": "[2]", "result": "8.5 ± 1.2", "unit": "µM"}
    ]},
    {"smiles": "COc1cc(C(=O)C=Cc2cc3ccccc3o2)cc(OC)c1OC", "note": "[Compound 7]", "values": [
      {"measurement": "IC50", "setting": "[1]", "result": "29.5 ± 1.5", "unit": "µM"},
      {"measurement": "IC50", "setting": "[2]", "result": "18.6 ± 0.5", "unit": "µM"}
    ]},
    {"smiles": "COc1cc(C(=O)C=Cc2ccc3sc4ccccc4c3c2)cc(OC)c1OC", "note": "[Compound 8]", "values": [
      {"measurement": "IC50", "setting": "[1]", "result": "68.6 ± 2.1", "unit": "µM"},
      {"measurement": "IC50", "setting": "[2]", "result": "45.7 ± 2.3", "unit": "µM"}
    ]},
    {"smiles": "COc1cc(C(=O)C=Cc2nc3ccccc3[nH]2)cc(OC)c1OC", "note": "[Compound 9]", "values": [
      {"measurement": "IC50", "setting": "[1]", "result": "> 100", "unit": "µM"},
      {"measurement": "IC50", "setting": "[2]", "result": "20.8 ± 1.4", "unit": "µM"}
    ]},
    {"smiles": "COc1ccc(C(=O)/C=C/c2cn(S(=O)(=O)c3ccccc3)c3ccccc23)cc1", "note": "[Compound 26e, (E)-1–(4-Methoxyphenyl)-3–(1-(phenylsulfonyl)-1H-indol-3-yl)prop-2-en-1-one]", "values": [
      {"measurement": "IC50", "setting": "[1]", "result": "35.6 ± 3.2", "unit": "µM"},
      {"measurement": "melting point", "result": "165 to 168", "unit": "°C"},
      {"measurement": "IC50", "setting": "[2]", "result": "58.4 ± 1.7", "unit": "µM"}
    ]},
    {"smiles": "CCCn1cc(/C=C/C(=O)c2cccc(OC)c2)c2ccccc21", "note": "[Compound 27c, (E)-1–(3-Methoxyphenyl)-3–(1-propyl-1H-indol-3-yl)prop-2-en-1-one]", "values": [
      {"measurement": "IC50", "setting": "[1]", "result": "18.6 ± 3.2", "unit": "µM"},
      {"measurement": "melting point", "result": "161 to 162", "unit": "°C"},
      {"measurement": "IC50", "setting": "[2]", "result": "52.1 ± 2.9", "unit": "µM"}
    ]},
    {"smiles": "O=C(/C=C/c1cn(S(=O)(=O)c2ccccc2)c2ccccc12)c1ccc(C(F)(F)F)cc1", "note": "[Compound 28e, (E)-3–(1-(phenylsulfonyl)-1H-indol-3-yl)-1–(4-(trifluoromethyl)phenyl)prop-2-en-1-one]", "values": [
      {"measurement": "IC50", "setting": "[1]", "result": "5.8 ± 2.1", "unit": "µM"},
      {"measurement": "melting point", "result": "167 to 170", "unit": "°C"},
      {"measurement": "IC50", "setting": "[2]", "result": "10.4 ± 0.7", "unit": "µM"}
    ]},
    {"smiles": "COc1cc(C(=O)/C=C/c2cn(C)c3ccccc23)cc(OC)c1OC", "note": "[Compound 29a, (E)-3–(1-Methyl-1H-indol-3-yl)-1–(3,4,5-trimethoxyphenyl)prop-2-en-1-one]", "values": [
      {"measurement": "IC50", "setting": "[1]", "result": "15.7 ± 3.2", "unit": "µM"},
      {"measurement": "melting point", "result": "160 to 162", "unit": "°C"},
      {"measurement": "IC50", "setting": "[2]", "result": "49.9 ± 8.5", "unit": "µM"}
    ]},
    {"smiles": "COc1cc(C(=O)/C=C/c2cn(Cc3ccccc3)c3ccccc23)cc(OC)c1OC", "note": "[Compound 29d, (E)-3–(1-Benzyl-1H-indol-3-yl)-1–(3,4,5-trimethoxyphenyl)prop-2-en-1-one]", "values": [
      {"measurement": "IC50", "setting": "[1]", "result": "6.7 ± 0.5", "unit": "µM"},
      {"measurement": "melting point", "result": "160 to 163", "unit": "°C"},
      {"measurement": "IC50", "setting": "[2]", "result": "24.8 ± 2.1", "unit": "µM"}
    ]},
    {"smiles": "COc1cc(C(=O)/C=C/c2ccnc3ccccc23)cc(OC)c1OC", "note": "[DYT-1, (E)-3-(quinolin-4-yl)-1–(3,4,5-trimethoxyphenyl)prop-2-en-1-one]", "values": [
      {"measurement": "IC50", "setting": "[1]", "result": 38.4, "unit": "µM"},
      {"measurement": "IC50", "setting": "[2]", "result": 25.6, "unit": "µM"},
      {"measurement": "IC50", "setting": "Jurkat", "result": 7.9, "unit": "µM"},
      {"measurement": "IC50", "setting": "K562", "result": 6.2, "unit": "µM"}
    ]}
  ]
}
